{"source": "patent US11020371B2", "about": "“Anti-norovirus composition and utilization thereof” (YAIZU SUISANKAGAKU INDUSTRY CO., LTD., priority 2015, dated 2021)", "key": {"[1]": {"test_system": "Murine norovirus strain S7", "assay": "Test Example 1: antiviral activity against murine norovirus (virus inactivation, TCID50 on RAW 264.7 cells)", "type": "cell-based", "conditions": "log(TCID50 untreated) - log(TCID50 treated); 60 min reaction; theaflavin purified product and tannic acid 1.5 mg/mL in 25% ethanol-added medium; products A and B stock solution", "source_text": "[Test Method] […] Murine norovirus strain S7 was obtained and used. (2) Cell A RAW 264.7 cell being a cell line derived from a murine macrophage (ATCC (American Type Culture Collection) TIB-71) was obtained and used. […] The theaflavin-containing purified extract (hereinafter referred to as “theaflavin purified product”) obtained in Production Example 2 was used as a test sample. Moreover, as a test sample for comparison, tannic acid having nonspecific protein binding ability and also reported as to effectiveness against a norovirus, and products A and B being the existing anti-virus products were used. […] The theaflavin purified product was dissolved in dimethyl sulfoxide to be 71.7 mg/mL, and the resultant material was used in the test described below. Tannic acid was dissolved in dimethyl sulfoxide to be 169.9 mg/mL, and the resultant material was used in the test described below. […] A RAW 264.7 cell was monolayer cultured in a well of a 96-well plate, and washed twice with PBS (Phosphate Buffered Saline), and 200 μL of cell maintenance medium (2% fetal bovine serum-containing Dulbecco's Modified Eagle Medium (DMEM)) was added, and the resultant material was used in the test described below. (6) Anti-Virus Test For each test sample, a concentration was adjusted as described below, and the resultant material was applied as a test solution. […]"}, "feline calicivirus": {"test_system": "feline calicivirus", "assay": "Test Example 3: anti-virus activity against feline calicivirus No. 2 (concentration, with or without 25% ethanol; TCID50 on CRFK cells)", "type": "cell-based", "conditions": "only 25% ethanol, no addition of theaflavin purified product; 60 min reaction", "procedure": "A cytopathic effect (CPE) was observed and a 50% tissue culture infectious dose (TCID50) being an indicator of a virus infectivity titer was calculated by the Behrens-Karber method. Moreover, a virus test solution untreated with the test sample was prepared in the same procedure, and the cytopathic effect was also observed on a cell to which the virus test solution was inoculated to determine a 50% tissue culture infectious dose (log (TCID50 value)). A reduction value of the virus infectivity titer by the test sample was calculated according to the formula (1) described below.\nAnti-virus activity of the test sample against feline calicivirus was examined in the same manner as in Test Example 2 except that “(4) Preparation of sample for anti-virus test” and “(6) Anti-virus test” were conducted as described below.\n(4) Preparation of Sample for Anti-Virus Test\nA theaflavin purified product was dissolved in dimethyl sulfoxide to be 0.717 mg/mL (low concentration), 7.17 mg/mL (medium concentration) and 71.7 mg/mL (high concentration), and the resultant material was used in the test described below.\nThen, 5 μL of a feline calicivirus solution and 45 μL of the test solution were mixed, and reacted for 60 minutes.\nTo the reaction liquid, 450 μL of serum-free Eagle's MEM medium was added to stop the reaction. […]"}}}
{"smiles": "O=C(OC[C@H]1O[C@@H](OC(=O)c2cc(O)c(O)c(OC(=O)c3cc(O)c(O)c(O)c3)c2)[C@H](OC(=O)c2cc(O)c(O)c(OC(=O)c3cc(O)c(O)c(O)c3)c2)[C@@H](OC(=O)c2cc(O)c(O)c(OC(=O)c3cc(O)c(O)c(O)c3)c2)[C@@H]1OC(=O)c1cc(O)c(O)c(OC(=O)c2cc(O)c(O)c(O)c2)c1)c1cc(O)c(O)c(OC(=O)c2cc(O)c(O)c(O)c2)c1", "note": "[Tannic acid]", "values": [{"measurement": "Reduction value of virus infectivity titer Average", "setting": "[1]", "result": 0.5}]}
{"smiles": "CCO", "note": "[ethanol]", "values": [{"measurement": "Average reduction value of virus infectivity titer", "setting": "feline calicivirus", "result": 0.5}]}
